Source: patent US12234299B2, “Peptides for inducing bacteriocin synthesis and methods to identify and/or select and/or optimize the same” (SYNGULON S.A., priority 2018, dated 2025)

Tests used:
[1] = tested on: S. salivarius HSISS4 derivatives; assay: Competence development (natural transformation frequency); format: cell-based, Streptococcus salivarius
Protocol: To induce competence, overnight CDMG precultures were diluted at a final OD600 of 0.05 in 300 μl (10 ml concerning the randomized peptide screen) of fresh CDMG and incubated 75 min at 37° C. Then, we added the pheromone sComS as well as DNA (overlapping PCRs or plasmids) and let the cells recover for 3 h at 37° C. before plating on M17G agar supplemented with antibiotics where required. Null-mutants were constructed by exchanging (double homologous recombination) the coding sequences (CDS) of target genes (sequence between start and stop codons) for either chloramphenicol or erythromycin resistance cassette. If stated, mutants were cleaned for the lox site-flanked resistance cassette, as previously described (Fontaine et al. Mol Microbiol 2010; 87:1113-1132). In case of deletion of multiple CDSs, the region between the start codon of the first CDS and the stop codon of the last CDS was deleted. Integration of the antibiotic resistance cassette at the right location was subsequently checked by PCR. The promoters of sptA genes was fused to the luxAB reporter genes and inserted with a chloramphenicol resistance cassette at the permissive tRNA threonine locus (HSISS4_r00061) by double homologous recombination. In case of ΔscuR and ΔsarF in-frame deletion, we used the two-step selection/counter-selection strategy previously described (Mignolet et al. Cell Rep 2018, 22:1627-1638). We transformed the wild-type strain with an overlapping PCR product composed of 4 fragments: (I) the upstream region of scuR or sarF genes, (II) the downstream region of scuR or sarF genes, (III) a cassette that includes the erythromycin resistance gene (erm) and a gene encoding the orotate transporter oroP, and finally (IV) the downstream region of scuR or sarF genes. We selected a first event of double recombination on medium supplemented with erythromycin. Next, we selected an intramolecular recombination between region (I) and (IV) that excises the erm-oroP cassette by growing cells on M17G supplemented with the toxic 5-fluoro-orotic acid (5-FOA) compound. In […] of oroP, 5-FOA is not able to cross the membrane and penetrate the cytoplasm where it is deleteriously incorporated in the nucleotide metabolic pathway (Overkamp et al., 2013). At final, we engineered an in-frame deletion mutant of scuR or sarF in which the first seven codons were fused to the last six codons without any cassette scar (see below for detailed cloning method).

comS promoter (PcomS) = assay: Luciferase (luxAB) promoter activity of PcomS with synthetic peptides; format: cell-based, Streptococcus salivarius HSISS4
Protocol: (§1) Overnight precultures were diluted at a final OD600 of 0.05. A volume of 300 μl of culture samples was incubated in the wells of a sterile covered white microplate with a transparent bottom (Greiner, Alphen a/d Rijn, The Netherlands) for 75 min at 37° C. and then supplemented with synthetic peptides (1 μM, except if otherwise stated) or DMSO, and xylose where required. Growth (OD600) and luciferase (Lux) activity (expressed in relative light units) was monitored at 10 min intervals during 24 h in a multi-wells plate reader (Hidex Sense, Hidex, Turku, Finland) as previously described (Fontaine et al., 2013).

[2] = tested on: comX promoter (PcomX) and ComX-dependent promoters; assay: Luciferase (luxAB) activity of PcomX and ComX-dependent late competence promoters; format: cell-based, Streptococcus salivarius HSISS4; settings: 1 μM; FIG. 9
Protocol: as §1

[3] = tested on: sptA promoter (PsptA), ScuR/SarF system; assay: Luciferase (luxAB) promoter activity of PsptA with exogenous synthetic peptides; format: cell-based, Streptococcus salivarius HSISS4
Protocol: as §1

slvX promoter (PslvX) = assay: Luciferase (luxAB) promoter activity of PslvX with synthetic peptides; format: cell-based, Streptococcus salivarius HSISS4
Protocol: as §1

ScuR = assay: Mobility shift assay (EMSA) of promoter probes with purified ScuR and synthetic peptide; format: binding, Streptococcus salivarius; settings: FIG. 4A
Protocol: All double-stranded DNA fragments (30 or 40 bp) were obtained from annealing of single-stranded Cy3-labelled (at 5′ end) and unlabeled oligonucleotides. Typically, a gel shift reaction (20 μl) was performed in a binding buffer (20 mM Tris-HCl pH 8.0, 150 mM NaCl, 1 mM EDTA, 1 mM DTT, 10% glycerol, 1 mg ml-1 BSA) and contained 150 ng labelled probe and […] StrepTag proteins. When necessary, […] of ComS peptides (unless otherwise stated) are added. The reaction is incubated at 37° C. for 10 min prior to loading of the samples on a native TBE 5% gel. The gel is next subjected to 80 V for approximately 1 h in TBE buffer. DNA complexes were detected by fluorescence on the Ettan DIGE Imager with bandpass excitation filters (nm): 540/25 (Cy3) or 635/30 (Cy5) and bandpass emission filters: 595/25 (Cy3) or 680/30 (Cy5) (GE Healthcare, Waukesha, WI).
The PCR-amplified scuR-StrepTag and gene sarF-StrepTag were cloned into the pBAD-comR-ST vector (see supplemental information). The ComR-StrepTag, ScuR-StrepTag and SarF-StrepTag recombinant proteins were overproduced in E. coli and purified as previously described (Fontaine et al., 2013) in standard native conditions on Strep-Tactin agarose beads (IBA).

[4] = tested on: S. salivarius producer strains; indicator strain Lactococcus lactis IL1403; assay: Bacteriocin detection assay (spot-on lawn, multilayer); format: cell-based, Streptococcus salivarius; settings: FIG. 5B
Protocol: The spot-on lawn (multilayer) detection method was performed as followed: 10 μl of overnight cultures of producer strains were diluted in fresh M17G medium and grown to reach mid-log phase (OD600=˜0.5). In parallel, we casted plates with a bottom feeding layer (M17G 1.5% agar) supplemented with a synthetic peptide where required. Next, we mixed 100 μl of an overnight culture of Lactococcus lactis IL1403 (indicator strain) in pre-warmed soft M17G medium (0.3% agar) and casted it as a top layer. Finally, we incubated mid-log phase cultures for 30 minutes with the corresponding synthetic peptides and spotted 3 μl of the producer strains on the top layer. Plates were incubated overnight before analysis of the inhibition zones surrounding the producer colonies.

[5] = WT background, dose response FIG. 3D
[6] = ΔscuR strain (SarF only), FIG. 3D

**Q.** Which results are given for “sBI7: synthetic peptide: last 8 amino acids of the clone BI7 peptide MIAILPFWLILG (sBI7)”?
**A.** support of natural transformation ([1]; Table 6): ineffective to support natural transformation; Competence development (transformation frequency) ([1]; Wild-type strain, ratio of transformants (chloramphenicol-resistant CFU) to total CFU count per 0.1 ug of linear DNA): ND (ND: not detected (<1.0E−08)); Competence development (transformation frequency) ([1]; ΔsarF strain, ratio of transformants to total CFU count per 0.1 ug of linear DNA): ND (ND: not detected (<1.0E−08)); Competence development (transformation frequency) ([1]; ΔscuR strain, ratio of transformants to total CFU count per 0.1 ug of linear DNA): ND (ND: not detected (<1.0E−08)); amplitude of PcomS response compared with PsptA and PslvX (comS promoter (PcomS); WT background, FIG. 3D): lowest; peptide concentration to which PcomS is responsive (comS promoter (PcomS); [5]): less than 1 nM; PcomS activity upon sBI7 induction in ΔscuR (comS promoter (PcomS); [6]): no activity in ΔscuR; activation of comX and late competence genes under direct ComX control [2]: cannot activate; amplitude of PsptA response compared with PslvX and PcomS ([3]; WT background, FIG. 3D): highest amplitude; peptide concentration to which PsptA is responsive [3, 5]: less than 1 nM; activity of all promoters (PsptA, PslvX, PcomS) in ΔsarF compared to WT ([3]; ΔsarF strain, FIG. 3D): slightly up compared to the WT; SarF-mediated PsptA response ([3]; ΔscuR strain, FIG. 3D): able to induce the SarF-mediated PsptA response; induction of sptA, comS and slvX promoters in ΔscuR-sarF double mutant ([3]; ΔscuR-sarF, FIG. 3F): utterly erased; peptide concentration to which PslvX is responsive (slvX promoter (PslvX); [5]): less than 1 nM; PslvX activity upon sBI7 induction in ΔscuR (slvX promoter (PslvX); [6]): no activity in ΔscuR; ScuR·sBI7 affinity for PcomS and PslvX in comparison to sComS-bound ComR (ScuR): appears weaker with a less stable complex; peptide concentration from which ScuR shifts the PsptA probe (ScuR; ScuR 4 μM, peptide 2:2 dilutions from 20 μM): ≥ 0.08 nM; ScuR affinity for PcomS probe (ScuR; with sBI7): weakest affinity; ScuR affinity for PsptA probe (ScuR; with sBI7): strongest one; halo of inhibition around producer strain ([4]; WT strain, sBI7 concentration ranging from 1 nM to 1 μM, indicator L. lactis): small halo of inhibition; halo of inhibition in mutant producer strains ([4]; single ΔscuR, double ΔscuR-sarF or Δslv5 strains): eradicated
